Data: ChEMBL document CHEMBL4831506, “Discovery of novel trimethoxyphenylbenzo[d]oxazoles as dual tubulin/PDE4 inhibitors capable of inducing apoptosis at G2/M phase arrest in glioma and lung cancer cells” (Eur J Med Chem, 2021)
The source made the active and inactive calls. The rule behind the calls is not given here.

Legend:
A549 [1] = experiment: Cell cycle arrest in human A549 cells assessed as decrease in cdc25C expression by Western blot analysis; format: functional, cell-based; details: dose 50-500 nM
U-251 [2] = experiment: Cell cycle arrest in human U-251 cells assessed as S phase at 500 nM measured after 24 hrs by propidium iodide staining based flow cytometry analysis (reference value: 18.23%); format: functional
NCI-H460 = experiment: Antiproliferative activity against human NCI-H460 cells after 48 hrs by MTT assay; format: functional, cell-based; details: NCI-H460, 48 h
A549 [3] = experiment: Induction of apoptosis in human A549 cells assessed as increase in necrotic cells at 500 nM measured after 24 hrs by PI/FITC analysis (reference value: 0.365%); format: functional
U-251 [4] = experiment: Cell cycle arrest in human U-251 cells assessed as G2/M phase at 1000 nM measured after 24 hrs by propidium iodide based flow cytometry analysis (reference value: 14.43%); format: functional
U-251 [5] = experiment: Induction of apoptosis in human U-251 cells assessed as increase in necrotic cells at 1000 nM measured after 24 hrs by PI/FITC analysis (reference value: 0.301%); format: functional
U-251 [6] = experiment: Induction of apoptosis in human U-251 cells assessed as increase in viable cells at 200 nM measured after 24 hrs by PI/FITC analysis (reference value: 98.3%); format: functional
A549 [7] = experiment: Induction of apoptosis in human A549 cells assessed as increase in early apoptotic cells at 50 nM measured after 24 hrs by PI/FITC analysis (reference value: 0.955%); format: functional
U-251 [8] = experiment: Induction of apoptosis in human U-251 cells assessed as increase in viable cells at 1000 nM measured after 24 hrs by PI/FITC analysis (reference value: 98.3%); format: functional
U-251 [9] = experiment: Induction of apoptosis in human U-251 cells assessed as increase in apoptotic cells at 500 nM measured after 24 hrs by PI/FITC analysis (reference value: 2.39%); format: functional
MCF7 = experiment: Antiproliferative activity against human MCF7 cells after 48 hrs by MTT assay; format: functional, cell-based; details: MCF7, 48 h
A549 [10] = experiment: Cell cycle arrest in human A549 cells assessed as S phase at 200 nM measured after 24 hrs by propidium iodide staining based flow cytometry analysis (reference value: 14.78%); format: functional
[11] = molecular target: 3',5'-cyclic-AMP phosphodiesterase 4C (Homo sapiens, UniProt Q08493); experiment: Inhibition of PDE4 CAT (unknown origin)
A549 [12] = experiment: Induction of apoptosis in human A549 cells assessed as increase in late apoptotic cells at 500 nM measured after 24 hrs by PI/FITC analysis (reference value: 0.955%); format: functional
U-251 [13] = experiment: Induction of apoptosis in human U-251 cells assessed as increase in early apoptotic cells at 1000 nM measured after 24 hrs by PI/FITC analysis (reference value: 1.12%); format: functional
A549 [14] = experiment: Induction of apoptosis in human A549 cells assessed as increase in necrotic cells at 200 nM measured after 24 hrs by PI/FITC analysis (reference value: 0.365%); format: functional
U-251 [15] = experiment: Cell cycle arrest in human U-251 cells assessed as S phase at 1000 nM measured after 24 hrs by propidium iodide staining based flow cytometry analysis (reference value: 18.23%); format: functional
A549 [16] = experiment: Cell cycle arrest in human A549 cells assessed as G2/M phase at 50 nM measured after 24 hrs by propidium iodide staining based flow cytometry analysis (reference value: 6.08%); format: functional
U-251 [17] = experiment: Cell cycle arrest in human U-251 cells assessed as S phase at 200 nM measured after 24 hrs by propidium iodide staining based flow cytometry analysis (reference value: 18.23%); format: functional
A549 [18] = experiment: Cell cycle arrest in human A549 cells assessed as G0/G1 phase at 200 nM measured after 24 hrs by propidium iodide staining based flow cytometry analysis (reference value: 79.14%); format: functional
A549 [19] = experiment: Induction of apoptosis in human A549 cells assessed as increase in early apoptotic cells at 500 nM measured after 24 hrs by PI/FITC analysis (reference value: 0.955%); format: functional
U-251 [20] = experiment: Cell cycle arrest in human U-251 cells assessed as G2/M phase at 200 nM measured after 24 hrs by propidium iodide staining based flow cytometry analysis (reference value: 14.43%); format: functional
A549 [21] = experiment: Cell cycle arrest in human A549 cells assessed as G2/M phase at 200 nM measured after 24 hrs by propidium iodide staining based flow cytometry analysis (reference value: 6.08%); format: functional
U-251 [22] = experiment: Induction of apoptosis in human U-251 cells assessed as increase in viable cells at 500 nM measured after 24 hrs by PI/FITC analysis (reference value: 98.3%); format: functional
U-251 [23] = experiment: Antiproliferative activity against human U-251 cells after 48 hrs by MTT assay; format: functional, cell-based; details: U-251, 48 h
A549 [24] = experiment: Cell cycle arrest in human A549 cells assessed as increase in cyclin B1 expression by Western blot analysis; format: functional, cell-based; details: dose 50-500 nM
A549 [25] = experiment: Induction of apoptosis in human A549 cells assessed as increase in early apoptotic cells at 200 nM measured after 24 hrs by PI/FITC analysis (reference value: 0.955%); format: functional
A549 [26] = experiment: Cell cycle arrest in human A549 cells assessed as S phase at 50 nM measured after 24 hrs by propidium iodide staining based flow cytometry analysis (reference value: 14.78%); format: functional
A549 [27] = experiment: Induction of apoptosis in human A549 cells assessed as increase in viable cells at 50 nM measured after 24 hrs by PI/FITC analysis (reference value: 98.4%); format: functional
Tubulin (Homo sapiens) = Tubulin (Homo sapiens) (UniProt P68371+Q9H4B7+P0DPH7+P68366+Q13509+Q71U36+P04350+Q3ZCM7+P07437+P68363+Q9BQE3+Q6PEY2+Q13885+Q9BVA1+Q9BUF5); experiment: Inhibition of tubulin assembly in human A549 cells measured after 24 hrs; format: cell-based
U-251 [28] = experiment: Cell cycle arrest in human U-251 cells assessed as G2/M phase at 500 nM measured after 24 hrs by propidium iodide staining based flow cytometry analysis (reference value: 14.43%); format: functional
Sus scrofa = organism: Sus scrofa; experiment: Inhibition of pig brain tubulin polymerization at 10 uM by spectrometric method relative to control; format: tissue-based
A549 [29] = experiment: Induction of apoptosis in human A549 cells assessed as increase in viable cells at 500 nM measured after 24 hrs by PI/FITC analysis (reference value: 98.4%); format: functional
A549 [30] = experiment: Cell cycle arrest in human A549 cells assessed as G0/G1 phase at 50 nM measured after 24 hrs by propidium iodide staining based flow cytometry analysis (reference value: 79.14%); format: functional
U-251 [31] = experiment: Cell cycle arrest in human U-251 cells assessed as G0/G1 phase at 200 nM measured after 24 hrs by propidium iodide staining based flow cytometry analysis (reference value: 67.34%); format: functional
A549 [32] = experiment: Induction of apoptosis in human A549 cells assessed as increase in late apoptotic cells at 50 nM measured after 24 hrs by PI/FITC analysis (reference value: 0.955%); format: functional
U-251 [33] = experiment: Induction of apoptosis in human U-251 cells assessed as increase in necrotic cells at 500 nM measured after 24 hrs by PI/FITC analysis (reference value: 0.301%); format: functional

3',5'-cyclic-AMP phosphodiesterase 4C, sequence (Q08493 whole entry): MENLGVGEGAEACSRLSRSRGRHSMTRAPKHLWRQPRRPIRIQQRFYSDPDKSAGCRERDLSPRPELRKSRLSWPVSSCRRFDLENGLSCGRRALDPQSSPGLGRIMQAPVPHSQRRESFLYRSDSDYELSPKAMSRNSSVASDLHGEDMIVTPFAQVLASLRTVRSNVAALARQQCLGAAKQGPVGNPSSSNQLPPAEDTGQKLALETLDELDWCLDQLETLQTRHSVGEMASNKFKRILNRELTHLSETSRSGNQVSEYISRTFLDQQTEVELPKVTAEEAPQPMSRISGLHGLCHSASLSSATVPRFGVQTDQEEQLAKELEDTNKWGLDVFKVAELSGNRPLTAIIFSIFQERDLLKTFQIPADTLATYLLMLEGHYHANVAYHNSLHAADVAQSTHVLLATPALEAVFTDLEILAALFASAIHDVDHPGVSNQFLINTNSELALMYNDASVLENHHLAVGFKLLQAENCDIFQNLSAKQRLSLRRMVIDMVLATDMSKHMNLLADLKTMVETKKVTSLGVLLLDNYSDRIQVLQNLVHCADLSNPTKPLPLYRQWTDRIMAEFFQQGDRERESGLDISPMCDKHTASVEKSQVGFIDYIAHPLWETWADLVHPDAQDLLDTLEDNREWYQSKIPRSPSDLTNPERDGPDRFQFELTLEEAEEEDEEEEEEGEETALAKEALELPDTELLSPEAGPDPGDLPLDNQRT

**Q.** Which results are given for `COc1cc(-c2cccc3nc(-c4ccc5cc[nH]c5c4)oc23)cc(OC)c1OC`?
**A.** Activity (A549 [1]): Dose-Dependent Effect; Activity (U-251 [2]): 22.47%; IC50 (NCI-H460): 24 nM; Activity (A549 [3]): 2.84%; Activity (U-251 [4]): 71.69%; Activity (U-251 [5]): 1.66%; Activity (U-251 [6]): 98%; Activity (A549 [7]): 5.32%; Activity (U-251 [8]): 77.4%; Activity (U-251 [9]): 20.98%; IC50 (MCF7): > 25000 nM; Activity (A549 [10]): 23.43%; IC50 [11]: 1250 nM; Activity (A549 [12]): 15.4%; Activity (U-251 [13]): 5.18%; Activity (A549 [14]): 1.61%; Activity (U-251 [15]): 14.77%; Activity (A549 [16]): 19.43%; Activity (U-251 [17]): 18.32%; Activity (A549 [18]): 15.24%; Activity (A549 [19]): 11.1%; Activity (U-251 [20]): 37.97%; Activity (A549 [21]): 61.33%; Activity (U-251 [22]): 83.1%; IC50 (U-251 [23]): 300 nM; Activity (A549 [24]): Dose-Dependent Effect; Activity (A549 [25]): 9.7%; Activity (A549 [26]): 24.79%; Activity (A549 [27]): 86.9%; inhibition (Tubulin (Homo sapiens)): Active; Activity (U-251 [28]): 42.9%; inhibition (Sus scrofa): 86%; Activity (A549 [29]): 70.7%; Activity (A549 [30]): 55.78%; Activity (U-251 [31]): 43.71%; Activity (A549 [32]): 7.23%; Activity (U-251 [33]): 2.92%
